Source: patent US12404279B2, “Deubiquitinase inhibitors and methods of use thereof” (Molecure S.A., priority 2021, dated 2025)
Structures can show the parent of a compound that is named as a salt.

Molecular target: full-length USP7 (Homo sapiens (Human), UniProt Q93009)
Assay: Enzymatic assay to determine IC50 of USP7 inhibitors (Ubiquitin-Rhodamine 110 cleavage)
Assay type: biochemical
Conditions: for IC50: 0.5 nM USP7, 0.5 μM Ubiquitin-Rhodamine 110, 45 min at 37° C.; for inhibition at 1 µM: read-out: percent value of inhibition of USP7 activity
How it was run: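 Enzyme: 0.5 nM full-length USP7 in HEPES pH 7.5 buffer with NaCl, DTT, BSA and Tween20, given 15 min at room temperature with DTT before compounds were added.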

Chain of full-length USP7 (Q93009 whole entry): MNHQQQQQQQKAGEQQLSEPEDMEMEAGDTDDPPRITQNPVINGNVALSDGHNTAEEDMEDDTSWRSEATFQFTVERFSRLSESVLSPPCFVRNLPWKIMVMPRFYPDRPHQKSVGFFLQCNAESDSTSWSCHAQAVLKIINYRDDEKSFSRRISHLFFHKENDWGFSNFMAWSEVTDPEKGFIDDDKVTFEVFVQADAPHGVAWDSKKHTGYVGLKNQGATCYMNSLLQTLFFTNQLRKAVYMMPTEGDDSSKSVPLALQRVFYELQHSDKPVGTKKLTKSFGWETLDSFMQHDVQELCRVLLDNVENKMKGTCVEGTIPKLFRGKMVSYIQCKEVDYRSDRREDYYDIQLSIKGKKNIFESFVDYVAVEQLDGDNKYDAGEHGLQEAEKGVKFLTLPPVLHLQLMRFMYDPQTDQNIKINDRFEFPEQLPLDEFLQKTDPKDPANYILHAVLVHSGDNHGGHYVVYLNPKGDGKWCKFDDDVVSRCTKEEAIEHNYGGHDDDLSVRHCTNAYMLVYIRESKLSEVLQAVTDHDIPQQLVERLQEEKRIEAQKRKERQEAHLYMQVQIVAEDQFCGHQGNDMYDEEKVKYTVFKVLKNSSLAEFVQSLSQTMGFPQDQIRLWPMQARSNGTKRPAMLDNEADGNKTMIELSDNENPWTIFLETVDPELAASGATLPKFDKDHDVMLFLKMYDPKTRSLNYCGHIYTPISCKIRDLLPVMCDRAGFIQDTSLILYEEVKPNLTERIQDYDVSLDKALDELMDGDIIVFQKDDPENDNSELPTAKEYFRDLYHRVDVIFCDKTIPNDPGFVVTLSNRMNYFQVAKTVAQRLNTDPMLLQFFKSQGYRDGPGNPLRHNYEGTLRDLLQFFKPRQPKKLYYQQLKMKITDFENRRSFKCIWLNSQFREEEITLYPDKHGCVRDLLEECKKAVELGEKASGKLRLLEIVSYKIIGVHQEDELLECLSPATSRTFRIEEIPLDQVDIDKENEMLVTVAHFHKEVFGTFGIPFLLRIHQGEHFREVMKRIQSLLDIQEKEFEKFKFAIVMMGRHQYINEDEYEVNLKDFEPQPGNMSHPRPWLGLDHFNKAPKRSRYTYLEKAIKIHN

Row | SMILES | IC50 [nM] | inhibition at 1 µM [%]
1 | Cc1cc(C(F)(F)F)nc(-c2ccnc3cc(CN4C(=O)C5C(C4=O)C5(C)C)sc23)c1C(=O)N1CCC2(CCCN2)C1 (centres unmarked) [Example 71, 6,6-dimethyl-3-((7-(4-methyl-3-(1,7-diazaspiro[4.4]nonane-7-carbonyl)-6-(trifluoromethyl)pyridin-2-yl)thieno[3,2-b]pyridin-2-yl)methyl)-3-azabicyclo[3.1.0]hexane-2,4-dione dihydrochloride] | < 500 | 
2 | CCN[C@H]1CCN(C(=O)c2c(C)cc(C(F)(F)F)nc2-c2ccnc3cc(CN4C(=O)C5C(C4=O)C5(C)C)sc23)C1 (stereo partly drawn) [Example 73, 3-((7-(3-((S)-3-(ethylamino)pyrrolidine-1-carbonyl)-4-methyl-6-(trifluoromethyl)pyridin-2-yl)thieno[3,2-b]pyridin-2-yl)methyl)-6,6-dimethyl-3-azabicyclo[3.1.0]hexane-2,4-dione dihydrochloride] | < 500 | 
3 | Cc1cc(C(F)(F)F)nc(-c2ccnc3cc(CN4C(=O)C5C(C4=O)C5(C)C)sc23)c1C(=O)N1CC[C@H](NC(C)C)C1 (stereo partly drawn) [Example 74, 3-((7-(3-((S)-3-(isopropylamino)pyrrolidine-1-carbonyl)-4-methyl-6-(trifluoromethyl)pyridin-2-yl)thieno[3,2-b]pyridin-2-yl)methyl)-6,6-dimethyl-3-azabicyclo[3.1.0]hexane-2,4-dione dihydrochloride] | < 500 | 
4 | Cc1cc(C(F)(F)F)nc(-c2ccnc3cc(CN4C(=O)C5C(C4=O)C5(C)C)sc23)c1C(=O)N[C@H]1CCNC1 (stereo partly drawn) [Example 75, 2-(2-((6,6-dimethyl-2,4-dioxo-3-azabicyclo[3.1.0]hexan-3-yl)methyl)thieno[3,2-b]pyridin-7-yl)-4-methyl-N—((S)-pyrrolidin-3-yl)-6-(trifluoromethyl)nicotinamide dihydrochloride] | 1000 to 10000 | 
5 | Cc1cc(C(F)(F)F)nc(-c2ccnc3cc(CN4C(=O)C5C(C4=O)C5(C)C)sc23)c1C(=O)N1CCNCC1 (centres unmarked) [Example 76, 6,6-dimethyl-3-((7-(4-methyl-3-(piperazine-1-carbonyl)-6-(trifluoromethyl)pyridin-2-yl)thieno[3,2-b]pyridin-2-yl)methyl)-3-azabicyclo[3.1.0]hexane-2,4-dione dihydrochloride] | < 500 | 
6 | Cc1cc(C(F)(F)F)nc(-c2ccnc3cc(CN4C(=O)C5C(C4=O)C5(C)C)sc23)c1C(=O)N1CCNC[C@@H]1C (stereo partly drawn) [Example 78, 6,6-dimethyl-3-((7-(4-methyl-3-((S)-2-methylpiperazine-1-carbonyl)-6-(trifluoromethyl)pyridin-2-yl)thieno[3,2-b]pyridin-2-yl)methyl)-3-azabicyclo[3.1.0]hexane-2,4-dione dihydrochloride] | < 500 | 
7 | Cc1cc(C(F)(F)F)nc(-c2ccnc3cc(CN4C(=O)C5C(C4=O)C5(C)C)sc23)c1C(=O)N1CCN(C)C[C@@H]1C (stereo partly drawn) [Example 79, 3-((7-(3-((S)-2,4-dimethylpiperazine-1-carbonyl)-4-methyl-6-(trifluoromethyl)pyridin-2-yl)thieno[3,2-b]pyridin-2-yl)methyl)-6,6-dimethyl-3-azabicyclo[3.1.0]hexane-2,4-dione hydrochloride] | < 500 | 
8 | Cc1cc(C(F)(F)F)nc(-c2ccnc3cc(CN4C(=O)C5C(C4=O)C5(C)C)sc23)c1C(=O)N1CCN(C)CC1 (centres unmarked) [Example 80, 6,6-dimethyl-3-((7-(4-methyl-3-(4-methylpiperazine-1-carbonyl)-6-(trifluoromethyl)pyridin-2-yl)thieno[3,2-b]pyridin-2-yl)methyl)-3-azabicyclo[3.1.0]hexane-2,4-dione dihydrochloride] | < 500 | 
9 | Cc1cc(C(F)(F)F)nc(-c2ccnc3cc(CN4C(=O)C5C(C4=O)C5(C)C)sc23)c1C(=O)N1CCC(F)(F)C1 (centres unmarked) [Example 83, 3-((7-(3-(3,3-difluoropyrrolidine-1-carbonyl)-4-methyl-6-(trifluoromethyl)pyridin-2-yl)thieno[3,2-b]pyridin-2-yl)methyl)-6,6-dimethyl-3-azabicyclo[3.1.0]hexane-2,4-dione hydrochloride] | < 500 | 
10 | Cc1cc(C(F)(F)F)nc(-c2ccnc3cc(CN4C(=O)C5C(C4=O)C5(C)C)sc23)c1C(=O)N1CCOCC1 (centres unmarked) [Example 84, 6,6-dimethyl-3-((7-(4-methyl-3-(morpholine-4-carbonyl)-6-(trifluoromethyl)pyridin-2-yl)thieno[3,2-b]pyridin-2-yl)methyl)-3-azabicyclo[3.1.0]hexane-2,4-dione hydrochloride] | 500 to 1000 | 
11 | Cc1nc(C(F)(F)F)cc(-c2ccnc3cc(CN4C(=O)C5C(C4=O)C5(C)C)sc23)c1NC(=O)C1CC(F)(F)C1 (centres unmarked) [Example 86, N-(4-(2-((6,6-dimethyl-2,4-dioxo-3-azabicyclo[3.1.0]hexan-3-yl)methyl)thieno[3,2-b]pyridin-7-yl)-2-methyl-6-(trifluoromethyl)pyridin-3-yl)-3,3-difluorocyclobutane-1-carboxamide hydrochloride] | > 10000 | 
12 | Cc1nc(C(F)(F)F)cc(-c2ccnc3cc(CN4C(=O)C5C(C4=O)C5(C)C)sc23)c1NC(=O)C1CCNCC1 (centres unmarked) [Example 87, N-(4-(2-((6,6-dimethyl-2,4-dioxo-3-azabicyclo[3.1.0]hexan-3-yl)methyl)thieno[3,2-b]pyridin-7-yl)-2-methyl-6-(trifluoromethyl)pyridin-3-yl)piperidine-4-carboxamide hydrochloride] | 1000 to 10000 | 
13 | Cc1nc(C(F)(F)F)cc(-c2ccnc3cc(CN4C(=O)C5C(C4=O)C5(C)C)sc23)c1CC1CCNC1 (centres unmarked) [Example 89, 6,6-dimethyl-3-((7-(2-methyl-3-(pyrrolidin-3-ylmethyl)-6-(trifluoromethyl)pyridin-4-yl)thieno[3,2-b]pyridin-2-yl)methyl)-3-azabicyclo[3.1.0]hexane-2,4-dione hydrochloride] | < 500 | 
14 | Cc1ccnc(CC2CNCCO2)c1-c1ccnc2cc(CN3C(=O)C4C(C3=O)C4(C)C)sc12 (centres unmarked) [Example 93, 6,6-dimethyl-3-((7-(4-methyl-2-(morpholin-2-ylmethyl)pyridin-3-yl)thieno[3,2-b]pyridin-2-yl)methyl)-3-azabicyclo[3.1.0]hexane-2,4-dione 2,2,2-trifluoroacetate] |  | < 20
15 | Cc1cc(C(F)(F)F)nc(-c2ccnc3cc(CN4C(=O)C5C(C4=O)C5(C)C)sc23)c1C[C@H]1CNCCO1 (stereo partly drawn) [Example 95, 6,6-dimethyl-3-((7-(4-methyl-3-(((S)-morpholin-2-yl)methyl)-6-(trifluoromethyl)pyridin-2-yl)thieno[3,2-b]pyridin-2-yl)methyl)-3-azabicyclo[3.1.0]hexane-2,4-dione dihydrochloride] | < 500 | 
16 | Cc1cc(C(F)(F)F)nc(-c2ccnc3cc(CN4C(=O)C5C(C4=O)C5(C)C)sc23)c1C[C@@H]1CNCCO1 (stereo partly drawn) [Example 96, 6,6-dimethyl-3-((7-(4-methyl-3-(((R)-morpholin-2-yl)methyl)-6-(trifluoromethyl)pyridin-2-yl)thieno[3,2-b]pyridin-2-yl)methyl)-3-azabicyclo[3.1.0]hexane-2,4-dione dihydrochloride] | < 500 | 
17 | Cc1cc(C(F)(F)F)nc(-c2ccnc3cc(CN4C(=O)C5C(C4=O)C5(C)C)sc23)c1C[C@H]1CN(C)CCO1 (stereo partly drawn) [Example 97, 6,6-dimethyl-3-((7-(4-methyl-3-(((S)-4-methylmorpholin-2-yl)methyl)-6-(trifluoromethyl)pyridin-2-yl)thieno[3,2-b]pyridin-2-yl)methyl)-3-azabicyclo[3.1.0]hexane-2,4-dione dihydrochloride] | 1000 to 10000 | 
18 | Cc1cc(C(F)(F)F)nc(-c2ccnc3cc(CN4C(=O)C5C(C4=O)C5(C)C)sc23)c1C[C@@H]1CN(C)CCO1 (stereo partly drawn) [Example 98, 6,6-dimethyl-3-((7-(4-methyl-3-(((R)-4-methylmorpholin-2-yl)methyl)-6-(trifluoromethyl)pyridin-2-yl)thieno[3,2-b]pyridin-2-yl)methyl)-3-azabicyclo[3.1.0]hexane-2,4-dione dihydrochloride] | < 500 | 
19 | CC1(C)C2C(=O)N(Cc3cc4nccc(-c5cc(C(F)(F)F)cnc5C[C@@H]5CNCCO5)c4s3)C(=O)C21 (stereo partly drawn) [Example 99, 6,6-dimethyl-3-((7-(2-(((R)-morpholin-2-yl)methyl)-5-(trifluoromethyl)pyridin-3-yl)thieno[3,2-b]pyridin-2-yl)methyl)-3-azabicyclo[3.1.0]hexane-2,4-dione 2,2,2-trifluoroacetate] | < 500 | 
20 | Cc1ccnc(-c2ccnc3cc(CN4C(=O)C5C(C4=O)C5(C)C)sc23)c1C(O)[C@@H]1CNCCO1 (stereo partly drawn) [Example 101, 3-((7-(3-(hydroxy((S)-morpholin-2-yl)methyl)-4-methylpyridin-2-yl)thieno[3,2-b]pyridin-2-yl)methyl)-6,6-dimethyl-3-azabicyclo[3.1.0]hexane-2,4-dione 2,2,2-trifluoroacetate] |  | < 20
21 | Cc1nc(C(F)(F)F)cc(-c2ccnc3cc(CN4C(=O)C5C(C4=O)C5(C)C)sc23)c1CN1CCNCC1 (centres unmarked) [Example 102, 6,6-dimethyl-3-((7-(2-methyl-3-(piperazin-1-ylmethyl)-6-(trifluoromethyl)pyridin-4-yl)thieno[3,2-b]pyridin-2-yl)methyl)-3-azabicyclo[3.1.0]hexane-2,4-dione 2,2,2-trifluoroacetate] | 1000 to 10000 | 
22 | Cc1nc(C(F)(F)F)cc(-c2ccnc3cc(CN4C(=O)C5C(C4=O)C5(C)C)sc23)c1CN1CC(F)(F)C1 (centres unmarked) [Example 103, 3-((7-(3-((3,3-difluoroazetidin-1-yl)methyl)-2-methyl-6-(trifluoromethyl)pyridin-4-yl)thieno[3,2-b]pyridin-2-yl)methyl)-6,6-dimethyl-3-azabicyclo[3.1.0]hexane-2,4-dione 2,2,2-trifluoroacetate] | 1000 to 10000 | 
23 | Cc1cc(C(F)(F)F)nc(-c2ccnc3cc(CN4C(=O)C5C(C4=O)C5(C)C)sc23)c1C(=O)N1CC[C@H](C(F)F)C1 (stereo partly drawn) [Example 104, 3-((7-(3-((S)-3-(difluoromethyl)pyrrolidine-1-carbonyl)-4-methyl-6-(trifluoromethyl)pyridin-2-yl)thieno[3,2-b]pyridin-2-yl)methyl)-6,6-dimethyl-3-azabicyclo[3.1.0]hexane-2,4-dione hydrochloride] | < 500 | 
